One assay deals with human S1P1 (EDG-1) (Homo sapiens (Human), UniProt P21453). Nature of the assay: Confirmation test of antagonistic activity for human S1P1 receptor (35S-GTP binding, cell membranes). The class given is biochemical. The settings on record: inhibition of 35S-GTP binding induced by S1P1 receptor selective agonist; HEK293 membranes expressing human S1P1. How it is done:
Confirmation Test of Antagonistic Activity for Human S1P1 Receptor
Test compounds were tested by reduction of functional binding activity of ^35S-GTP (guanosine 5′-O-[gamma-thio] triphosphate, PerkinElmer) to G protein using cell membranes expressing human S1P1 (EDG-1). S1P1-pcDNA3.1/V5-His-Topo vector was prepared by inserting cDNA (NM_001400) encoding human S1P1 into the expression vector, pcDNA3.1/V5-His-Topo (registered trademark) (Invitrogen). Next, the above S1P1-pcDNA3.1 vector was transfected into HEK293 cells by Lipofectamine2000 (registered trademark) (Invitrogen). The transfected cells were incubated with D-MEM liquid medium each containing 10% FBS (Fetal bovine serum), 100 U/mL penicillin, 100 μg/mL streptomycin and 1 mg/mL Geneticin (registered trademark) (Invitrogen) in an incubator under the condition of 5% CO2 at 37° C. and Geneticin (registered mark)-resistant cell line stably expressing S1P1 were obtained. The obtained stably S1P1-expressing cells were incubated with D-MEM liquid medium each containing 10% FBS and 0.5 mg/mL Geneticin (registered trademark) in an incubator under the condition of 5% CO2 at 37° C. The cells grown to confluence were harvested by a buffer solution containing 50 mM Tris, 2 mM EDTA (ethylmediaminetetraacetic acid) and 125 mM sodium chloride, and centrifuged at 1880×g, 4° C. for 10 minutes. After a supernatant was removed, a cell pellet was resuspended by the same buffer solution. For making cell membranes fragile, this cell suspension was frozen at −80° C. and then thawed. The cells were centrifuged at 1880×g, 4° C. for 10 minutes, and a supernatant was removed. The cell pellet was suspended by adding the same buffer solution and a fracture solution (10 mM sodium bicarbonate and 5 mM EDTA, pH 7.5) at a ratio of 2:1. The cells were fractured by subjecting the cell suspension to ultrasonication, and a cell membrane fraction was isolated by centrifugation at 1880×g, 4° C. for 10 minutes and ultracentrifugation of the supernatant at 80000×g, 4° C. for 30 minutes. A pellet of the cell membrane fraction was suspended by the fracture solution containing protease inhibitor cocktail (Roche) and stored at −80° C. until use. A protein concentration of the cell membrane fraction was determined using BCA Protein Assay Kit (Pierce) in accordance with an attached protocol.
Inhibitory activity evaluation was performed by multi-screen (registered trademark) HTS 96-well plate (Millipore) using the cell membrane fraction stably expressing S1P1 obtained by the above operation. 25 μL of assay solution (50 mM Tris, 100 mM sodium chloride, 5 mM magnesium chloride, 1 mM EDTA, 1 mM DTT (dithiothreitol), 10 μM GDP (guanosine diphosphate) and 0.5% BSA (bovine serum albumin), pH 7.4), 25 μL of test compounds solution diluted by assay solution and 25 μL of the membrane fraction (0.2 μg protein/μL) were added to each well, and the mixture was gently shaken at room temperature: for 30 minutes. Then, 25 μL of ^35S-GTP, and 25 μL of 50 nM S1P1 receptor selective agonist (1-[4-(4-phenyl-5-trifluoromethylthiophen-2-ylmethoxy)benzyl]azetidine-3-carboxylic acid, “J. Med. Chem.”, 2004, vol. 47, pp. 6662-6665, compound 18) were added to each well, respectively, and it was reacted at room temperature for 60 minutes. After the reaction, a reaction solution of each well was suction-filtered. After suction filtration, ice-colded wash solution (50 mM Tris, 100 mM sodium chloride, […] and 1 mM EDTA, pH 7.4) was added to each well, and moreover filters were washed by suction filtration. This wash procedure was performed three times. A bottom of the plate containing the filters was dried at 60° C. After drying, 30 μL of MicroScinti-40 (PerkinElmer) was added to each well, and the radioactivity adsorbed on the filter was determined by TopCount NXT (registered trademark) (PerkinElmer) after shaking for 30 minutes at room temperature. […]

In another assay the test system is EAE model. Nature of the assay: Drug efficiency evaluation in experimental autoimmune encephalomyelitis (EAE) model. In kind it is in vivo. The following applies: DA rats, oral twice a day, 15 mg/kg, day 0 to day 13; mean ± standard error. On the procedure:
The Drug Efficiency Evaluation in Experimental Autoimmune Encephalomyelitis (EAE) Model
An EAE model (experimental autoimmune encephalomyelitis, hereinafter referred to as EAE), which is widely used as an animal model reflecting the pathological condition of human multiple sclerosis was prepared using DA rats (Japan SLC, 8 to 9-week-old in use) as described below, and the effect of test compound was confirmed.
Firstly, the emulsion for immunization was prepared by the method described below. After rats were sacrificed by exsanguination from the carotid artery under anesthesia of isoflurane, two spinal cords and a brain were collected. […]
The EAE score was evaluated daily to day 13 as day 0 when DA rats were immunized. The EAE score was evaluated as 0-5 points: 0 points: no symptoms, 1 point: walkable straight with normal our limbs but complete loss of tail tonus, 2 points: slight paralysis of a limb (especially hind limbs) and walkable wobbly, 3 points: full paralysis of two limbs (especially hind limbs) and walkable with a limp, 4 points: tetraplegia, moribund or abasia, 5 points: dead.
The area under the curve was calculated based on the variation per day of EAE score during evaluation periods from immunization day 0 to day 13, and used as an index for effects of test compounds.

Chain of human S1P1 (EDG-1) (P21453 whole entry): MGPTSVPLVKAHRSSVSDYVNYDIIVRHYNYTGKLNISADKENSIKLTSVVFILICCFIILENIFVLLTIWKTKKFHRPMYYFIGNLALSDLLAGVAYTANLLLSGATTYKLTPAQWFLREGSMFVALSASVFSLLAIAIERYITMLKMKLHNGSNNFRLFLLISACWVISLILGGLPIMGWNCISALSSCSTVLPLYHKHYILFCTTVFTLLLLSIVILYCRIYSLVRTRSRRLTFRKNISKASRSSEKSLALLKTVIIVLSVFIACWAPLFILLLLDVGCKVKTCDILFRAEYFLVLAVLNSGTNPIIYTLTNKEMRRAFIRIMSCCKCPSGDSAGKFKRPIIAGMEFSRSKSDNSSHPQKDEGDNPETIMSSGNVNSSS

Usually IC50 stands for the concentration needed to halve the response being measured. Read a low IC50 as inhibition by little substance. With `CCN(c1ccc(Cl)c(C)c1)C(C)c1ccc(C)c(CN2CC(C(=O)O)C2)c1` (stereo not drawn) [Compound 2-6, 1-(5-{1-[(4-Chloro-3-methylphenyl)(ethyl)amino]ethyl}-2-methylbenzyl)azetidine-3-carboxylic acid], on human S1P1 (EDG-1), the IC50 turned out to be 1 nM.
Take `CCN(c1ccc(Cl)c(C(F)(F)F)c1)C(C)c1ccc(C)c(CN2CC(C(=O)O)C2)c1` (stereo not drawn) [Compound 2-7, 1-(5-{1-[(4-Chloro-3-trifluoromethylphenyl)(ethyl)amino]ethyl}-2-methylbenzyl)-azetidine-3-carboxylic acid]: the “Area under the curve of EAE score” value in the assay on EAE model amounted to 6.1 ± 1.6. Moreover, on human S1P1 (EDG-1), the IC50 came to 1.2 nM.

The record behind these values is patent US9718771B2, “Aniline derivative, pharmaceutical composition containing same, and use thereof” (Kissei Pharmaceutical Co., Ltd., priority 2014, dated 2017).
